From patent publication US10072006B2 (MUTABILIS, priority 2015, dated 2018)
pIC50: −log10 of the molar value. In brackets after ≈: the same amount, converted by molar mass.

Assays:
OXA-48 = biological target: T1, OXA-48 (Klebsiella pneumoniae, UniProt Q6XEC0); experiment: β-lactamase inhibitory activity, determination of IC50 (nitrocefin hydrolysis); format: biochemical
T1 construct: made in house; host or cells: E. coli

OXA-15 = biological target: T2, OXA-15 (Pseudomonas aeruginosa, UniProt Q51574); experiment: as above; format: biochemical
T2 construct: made in house; host or cells: E. coli
T2 sequence (Q51574 22-275): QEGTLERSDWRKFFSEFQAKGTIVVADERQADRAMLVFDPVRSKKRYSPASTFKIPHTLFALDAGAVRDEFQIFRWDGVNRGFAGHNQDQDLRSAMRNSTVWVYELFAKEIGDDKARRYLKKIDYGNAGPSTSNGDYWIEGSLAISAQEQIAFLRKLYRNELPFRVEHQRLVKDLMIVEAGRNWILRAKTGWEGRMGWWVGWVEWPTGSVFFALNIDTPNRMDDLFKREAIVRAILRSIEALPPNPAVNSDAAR

KPC-2 = biological target: T3, KPC-2 (Klebsiella pneumoniae, UniProt Q9F663); experiment: as above; format: biochemical
T3 construct: made in house; host or cells: E. coli
T3 sequence (Q9F663 25-293 limits assumed): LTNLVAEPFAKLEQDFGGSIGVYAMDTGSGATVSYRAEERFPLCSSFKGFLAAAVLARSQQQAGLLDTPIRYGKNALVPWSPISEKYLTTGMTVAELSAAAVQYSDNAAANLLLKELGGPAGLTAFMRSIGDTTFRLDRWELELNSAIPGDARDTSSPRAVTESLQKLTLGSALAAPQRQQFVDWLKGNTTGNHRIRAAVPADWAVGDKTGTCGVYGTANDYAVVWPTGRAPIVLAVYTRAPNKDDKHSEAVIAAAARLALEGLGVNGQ

[1] = system: E. cloacae UFR85 (TEM-1, CTX-M-15, derepressed ampC); experiment: microbe, parasite or virus in culture; format: cell-based
Procedure: […] […] Microplates were incubated for 16-20 h at 35° C. in ambient air. The MIC of the compounds was defined as the lowest concentration of said compounds that prevented bacterial growth as read by visual inspection.

[2] = system: K. oxytoca UFR21 (TEM-1, CTX-M-15, OXA-48); experiment: microbe, parasite or virus in culture; format: cell-based
OXA-1 = biological target: T4, OXA-1 (Escherichia coli, UniProt P13661); experiment: β-lactamase inhibitory activity, determination of IC50 (nitrocefin hydrolysis); format: biochemical
T4 construct: made in house; host or cells: E. coli
T4 sequence (P13661 26-276): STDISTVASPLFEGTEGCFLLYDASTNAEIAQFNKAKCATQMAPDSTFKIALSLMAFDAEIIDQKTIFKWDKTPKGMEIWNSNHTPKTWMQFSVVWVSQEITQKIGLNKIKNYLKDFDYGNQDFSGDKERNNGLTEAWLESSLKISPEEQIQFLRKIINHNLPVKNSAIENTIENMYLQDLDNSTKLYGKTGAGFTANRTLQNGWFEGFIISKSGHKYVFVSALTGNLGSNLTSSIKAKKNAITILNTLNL

OXA-11 = biological target: T5, OXA-11 (Pseudomonas aeruginosa, UniProt Q06778); experiment: as above; format: biochemical
T5 construct: made in house; host or cells: E. coli
T5 sequence (Q06778 21-266): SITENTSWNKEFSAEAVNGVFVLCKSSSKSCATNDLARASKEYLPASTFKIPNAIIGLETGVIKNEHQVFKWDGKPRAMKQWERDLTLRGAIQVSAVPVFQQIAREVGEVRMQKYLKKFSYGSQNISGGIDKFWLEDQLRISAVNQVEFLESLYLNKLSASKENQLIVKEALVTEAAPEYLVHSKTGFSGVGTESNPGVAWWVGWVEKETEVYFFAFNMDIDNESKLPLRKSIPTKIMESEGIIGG

[3] = system: K. pneumoniae UFR68 (TEM-1, SHV-11, CTX-M-15, KPC-3); experiment: microbe, parasite or virus in culture; format: cell-based
[4] = system: K. pneumoniae 200047 (TEM-1, SHV-32, CTX-M-15, OXA-1); experiment: microbe, parasite or virus in culture; format: cell-based
[5] = system: K. pneumoniae 160143 (TEM-1, SHV-1, CTX-M-15, KPC-2, OXA-1); experiment: microbe, parasite or virus in culture; format: cell-based
Procedure: (§1) Briefly, compounds alone according to the invention were prepared in DMSO and spotted (2 μL each) on sterile polystyrene plates (Corning, 3788). […] Microplates were incubated for 16-20 h at 35° C. in ambient air. The MIC of the compounds was defined as the lowest concentration of said compounds that prevented bacterial growth as read by visual inspection.

[6] = system: E. cloacae 260508 (TEM-1, CTX-M-15); experiment: microbe, parasite or virus in culture; format: cell-based
Procedure: as §1

[7] = system: E. coli 190317 (TEM-1, SHV-12, CTX-M-15, OXA-1); experiment: microbe, parasite or virus in culture; format: cell-based; conditions: for MIC: Escherichia coli, 18 h, read-out: MIC compounds of the invention alone; for MIC, combination of CAZ and compounds of the invention: MIC of ceftazidime with compound fixed at 4 μg/mL, strain 190317 (E. coli)
Procedure: as §1

CTX-M-15 = biological target: T6, CTX-M-15 (Escherichia coli, UniProt Q9EXV5); experiment: β-lactamase inhibitory activity, determination of IC50 (nitrocefin hydrolysis); format: biochemical
T6 construct: made in house; host or cells: E. coli
T6 sequence (Q9EXV5 entry or part of it): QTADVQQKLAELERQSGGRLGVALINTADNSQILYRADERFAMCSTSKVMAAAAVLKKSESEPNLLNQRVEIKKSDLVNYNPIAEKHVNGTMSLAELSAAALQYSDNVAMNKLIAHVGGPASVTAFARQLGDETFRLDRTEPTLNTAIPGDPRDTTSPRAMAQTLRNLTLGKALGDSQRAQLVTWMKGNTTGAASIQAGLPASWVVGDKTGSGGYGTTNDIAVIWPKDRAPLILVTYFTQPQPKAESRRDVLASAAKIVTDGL

[8] = system: P. aeruginosa UFR92 (Derepressed ampC, OprD-); experiment: MIC of compounds and synergy with ceftazidime (broth microdilution); format: cell-based; conditions: for MIC, combination of CAZ and compounds of the invention: MIC of ceftazidime with compound fixed at 4 μg/mL, strain UFR92 (P. aeruginosa); for MIC: Pseudomonas aeruginosa, 18 h, read-out: MIC compounds of the invention alone
Procedure: as §1

[9] = system: E. cloacae UFR70 (TEM-1, CTX-M-15, CMY-2, OXA-1, Porin loss); experiment: as above; format: cell-based
Procedure: as §1

[10] = system: P. aeruginosa UFR93 (Derepressed ampC, OprD-, MexAB+, MexXY+); experiment: as above; format: cell-based; conditions: for MIC, combination of CAZ and compounds of the invention: MIC of ceftazidime with compound fixed at 4 μg/mL, strain UFR93 (P. aeruginosa); for MIC: Pseudomonas aeruginosa, 18 h, read-out: MIC compounds of the invention alone
Procedure: as §1

[11] = system: P. aeruginosa UFR90 (Derepressed ampC, OprD-); experiment: as above; format: cell-based; conditions: for MIC, combination of CAZ and compounds of the invention: MIC of ceftazidime with compound fixed at 4 μg/mL, strain UFR90 (P. aeruginosa); for MIC: Pseudomonas aeruginosa, 18 h, read-out: MIC compounds of the invention alone
Procedure: as §1

SHV-1 = biological target: T7, SHV-1 (Klebsiella pneumoniae, UniProt P0AD64); experiment: β-lactamase inhibitory activity, determination of IC50 (nitrocefin hydrolysis); format: biochemical
T7 construct: made in house; host or cells: E. coli
T7 sequence (P0AD64 22-286): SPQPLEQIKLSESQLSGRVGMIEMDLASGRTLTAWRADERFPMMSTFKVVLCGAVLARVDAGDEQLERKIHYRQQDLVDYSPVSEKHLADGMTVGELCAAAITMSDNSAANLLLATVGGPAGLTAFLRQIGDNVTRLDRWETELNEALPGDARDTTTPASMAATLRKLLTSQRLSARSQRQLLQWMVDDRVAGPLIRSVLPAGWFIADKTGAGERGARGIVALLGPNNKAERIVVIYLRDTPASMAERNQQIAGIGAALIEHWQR

AmpC (PAE) = AmpC (PAE) (Pseudomonas aeruginosa, UniProt P24735); experiment: biochemical
AmpC (PAE), sequence (P24735 27-397): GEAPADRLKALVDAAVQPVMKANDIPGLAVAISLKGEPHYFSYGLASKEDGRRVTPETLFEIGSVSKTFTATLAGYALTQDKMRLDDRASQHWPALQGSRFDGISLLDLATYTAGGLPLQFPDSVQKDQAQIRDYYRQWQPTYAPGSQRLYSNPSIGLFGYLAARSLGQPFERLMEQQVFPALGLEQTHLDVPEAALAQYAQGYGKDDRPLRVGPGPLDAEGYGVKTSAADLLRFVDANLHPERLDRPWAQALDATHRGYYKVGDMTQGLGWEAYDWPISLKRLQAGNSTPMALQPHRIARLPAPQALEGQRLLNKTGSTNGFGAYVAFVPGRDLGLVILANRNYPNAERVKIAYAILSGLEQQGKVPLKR

[12] = system: K. pneumoniae BAA-1898 (TEM-1, SHV-11, SHV-12, KPC-2); experiment: MIC of compounds and synergy with ceftazidime (broth microdilution); format: cell-based
Procedure: as §1

[13] = system: P. aeruginosa CIP105250 (OXA-15); experiment: as above; format: cell-based
Procedure: as §1

[14] = system: E. cloacae P99 (Derepressed ampC); experiment: as above; format: cell-based
Procedure: as §1

[15] = system: P. aeruginosa CIP107051 (TEM-24); experiment: as above; format: cell-based
Procedure: as §1

[16] = system: P. aeruginosa UFR47 (VIM-1); experiment: as above; format: cell-based
Procedure: as §1

[17] = system: P. aeruginosa UFR35 (OXA-23); experiment: as above; format: cell-based
Procedure: as §1

[18] = system: E. coli 131119 (TEM-1, OXA-48); experiment: as above; format: cell-based; conditions: Escherichia coli, 18 h, read-out: MIC compounds of the invention alone
Procedure: as §1

[19] = system: K. pneumoniae 6299 (TEM-1, SHV-11, OXA-163); experiment: as above; format: cell-based
Procedure: as §1

E. coli RGN238 (OXA-1) = experiment: as above; format: cell-based; conditions: Escherichia coli, 18 h, read-out: MIC compounds of the invention alone
Procedure: as §1

[20] = system: P. aeruginosa UFR48 (VIM-2); experiment: as above; format: cell-based
Procedure: as §1

[21] = system: P. aeruginosa UFR59 (IMP-29); experiment: as above; format: cell-based
Procedure: as §1

TEM-1 = biological target: T8, TEM-1 (Escherichia coli, UniProt P62593); experiment: β-lactamase inhibitory activity, determination of IC50 (nitrocefin hydrolysis); format: biochemical; conditions: class (A), 30 min pre-incubation
T8 construct: made in house; host or cells: E. coli
T8 sequence (P62593 24-286 limits assumed): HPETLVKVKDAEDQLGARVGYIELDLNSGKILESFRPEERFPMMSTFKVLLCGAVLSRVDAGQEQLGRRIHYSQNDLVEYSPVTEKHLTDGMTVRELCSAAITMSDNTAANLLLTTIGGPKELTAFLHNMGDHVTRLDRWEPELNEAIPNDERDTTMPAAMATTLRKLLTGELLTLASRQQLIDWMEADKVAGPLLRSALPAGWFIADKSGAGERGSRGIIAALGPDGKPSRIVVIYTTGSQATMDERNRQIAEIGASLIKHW

AmpC (P99) = AmpC (P99) (Enterobacter cloacae, UniProt P05364); experiment: biochemical
AmpC (P99), sequence (P05364 21-381): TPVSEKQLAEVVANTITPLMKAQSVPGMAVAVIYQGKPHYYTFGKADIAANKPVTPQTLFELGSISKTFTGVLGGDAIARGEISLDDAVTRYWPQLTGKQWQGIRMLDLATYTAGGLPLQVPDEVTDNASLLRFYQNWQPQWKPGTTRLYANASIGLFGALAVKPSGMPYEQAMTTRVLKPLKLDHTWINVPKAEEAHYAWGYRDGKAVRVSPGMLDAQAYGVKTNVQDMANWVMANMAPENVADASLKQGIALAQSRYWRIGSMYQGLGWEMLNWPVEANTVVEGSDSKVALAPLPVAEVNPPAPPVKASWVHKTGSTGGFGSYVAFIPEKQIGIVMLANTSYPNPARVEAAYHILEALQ

[22] = Enterobacter cloacae, 18 h, read-out: MIC compounds of the invention alone
[23] = Klebsiella pneumoniae, 18 h, read-out: MIC compounds of the invention alone
[24] = Pseudomonas aeruginosa, 18 h, read-out: MIC compounds of the invention alone

T1 sequence (Q6XEC0 23-265 limits assumed): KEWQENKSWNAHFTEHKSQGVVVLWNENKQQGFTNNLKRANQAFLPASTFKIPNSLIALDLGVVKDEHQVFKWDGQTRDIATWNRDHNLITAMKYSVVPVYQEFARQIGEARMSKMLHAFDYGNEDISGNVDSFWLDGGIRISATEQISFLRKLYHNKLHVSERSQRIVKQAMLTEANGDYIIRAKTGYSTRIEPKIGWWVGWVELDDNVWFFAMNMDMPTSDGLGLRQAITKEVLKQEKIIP

NC[C@H]1C=C(c2cnco2)[C@@H]2CN1C(=O)N2OS(=O)(=O)[O-].O=C(O)C(F)(F)F.[Na+] (relative stereo) [Example 1, Sodium and 2,2,2-trifluoroacetate [trans-2-(azaniumylmethyl)-4-oxazol-5-yl-7-oxo-1,6-diazabicyclo[3.2.1]oct-3-en-6-yl] sulfate]
pIC50 (OXA-48): 9.29
pIC50 (OXA-15): 9.19
pIC50 (KPC-2): 8.11
MIC [1, 22]: > 32 µg/mL
MIC, combination of CAZ and compounds of the invention ([1]; MIC of ceftazidime with compound fixed at 4 μg/mL, strain UFR85 (E. cloacae)): 2 µg/mL
MIC ([2]; Klebsiella oxytoca, 18 h, read-out: MIC compounds of the invention alone): > 32 µg/mL
MIC, combination of CAZ and compounds of the invention ([2]; MIC of ceftazidime with compound fixed at 4 μg/mL, strain UFR21 (K. oxytoca)): 0.5 µg/mL
pIC50 (OXA-1): 7.10
pIC50 (OXA-11): 8.39
MIC [3, 23]: > 32 µg/mL
MIC, combination of CAZ and compounds of the invention ([3]; MIC of ceftazidime with compound fixed at 4 μg/mL, strain UFR68 (K. pneumoniae)): 1 µg/mL
MIC [4, 23]: > 32 µg/mL
MIC, combination of CAZ and compounds of the invention ([4]; MIC of ceftazidime with compound fixed at 4 μg/mL, strain 200047 (K. pneumoniae)): 0.5 µg/mL
MIC [5, 23]: > 32 µg/mL
MIC, combination of CAZ and compounds of the invention ([5]; MIC of ceftazidime with compound fixed at 4 μg/mL, strain 160143 (K. pneumoniae)): 1 µg/mL
MIC ([6]; Enterobacter cloacae, read-out: MIC compounds of the invention alone): 0.063 µg/mL
MIC, combination of CAZ and compounds of the invention ([6]; MIC of ceftazidime with compound fixed at 4 μg/mL, strain 260508 (E. cloacae)): ≤0.125 µg/mL
MIC [7]: 0.031 µg/mL
MIC, combination of CAZ and compounds of the invention [7]: <0.25 µg/mL
pIC50 (CTX-M-15): 8.27
MIC, combination of CAZ and compounds of the invention [8]: <0.25 µg/mL
MIC [8]: 2 µg/mL
MIC [9, 22]: 16 µg/mL
MIC, combination of CAZ and compounds of the invention ([9]; MIC of ceftazidime with compound fixed at 4 μg/mL, strain UFR70 (E. cloacae)): 1 µg/mL
MIC, combination of CAZ and compounds of the invention [10]: <0.25 µg/mL
MIC [10]: 8 µg/mL
MIC, combination of CAZ and compounds of the invention [11]: <0.25 µg/mL
MIC [11]: 0.5 µg/mL
pIC50 (SHV-1): 8.89

NC[C@@H]1C=C(c2cnco2)[C@@H]2CN1C(=O)N2OC(F)(F)C(=O)O (relative stereo) [Example 3, lithium and 2,2,2-trifluoroacetate [trans-2-(azaniumylmethyl)-4-oxazol-5-yl-7-oxo-1,6-diazabicyclo[3.2.1]oct-3-en-6-yl]oxy]-2,2-difluoro-acetate]
pIC50 (OXA-48): 8.24
pIC50 (OXA-15): 8.80
pIC50 (KPC-2): 7.48
pIC50 (AmpC (PAE)): 6.66
pIC50 (OXA-1): 7.77
pIC50 (OXA-11): 7.32
MIC [7]: 0.25 µg/mL (≈ 0.757 µM)
MIC, combination of CAZ and compounds of the invention [7]: <0.125 µg/mL
pIC50 (CTX-M-15): 8.70
MIC ([12]; Klebsiella pneumoniae, BAA1898, read-out: MIC compounds of the invention alone): > 32 µg/mL
MIC, combination of CAZ and compounds of the invention ([12]; MIC of ceftazidime with compound fixed at 4 μg/mL, strain BAA-1898 (K. pneumoniae)): 1 µg/mL
MIC, combination of CAZ and compounds of the invention ([13]; MIC of ceftazidime with compound fixed at 4 μg/mL, strain CIP105250 (P. aeruginosa)): 8 µg/mL
MIC ([13]; Pseudomonas aeruginosa, CIP105250, 18 h, read-out: MIC compounds of the invention alone): > 32 µg/mL
MIC [14, 22]: 0.063 µg/mL
MIC, combination of CAZ and compounds of the invention ([14]; MIC of ceftazidime with compound fixed at 4 μg/mL, strain P99 (E. cloacae)): <0.125 µg/mL
MIC, combination of CAZ and compounds of the invention [8]: ≤0.25 µg/mL
MIC [8]: 8 µg/mL
MIC, combination of CAZ and compounds of the invention ([15]; MIC of ceftazidime with compound fixed at 4 μg/mL, strain CIP107051 (P. aeruginosa)): ≤0.25 µg/mL
MIC ([15]; Pseudomonas aeruginosa, CIP107051, 18 h, read-out: MIC compounds of the invention alone): 16 µg/mL
MIC, combination of CAZ and compounds of the invention ([16]; MIC of ceftazidime with compound fixed at 4 μg/mL, strain UFR47 (P. aeruginosa)): <0.25 µg/mL
MIC [16, 24]: 4 µg/mL
MIC, combination of CAZ and compounds of the invention ([17]; MIC of ceftazidime with compound fixed at 4 μg/mL, strain UFR35 (P. aeruginosa)): <0.25 µg/mL
MIC [17, 24]: 2 µg/mL
MIC [18]: 0.5 µg/mL
MIC [19, 23]: > 32 µg/mL
MIC, combination of CAZ and compounds of the invention ([19]; MIC of ceftazidime with compound fixed at 4 μg/mL, strain 6299 (K. pneumoniae)): 1 µg/mL
MIC (E. coli RGN238 (OXA-1)): > 32 µg/mL
MIC, combination of CAZ and compounds of the invention [10]: 0.5 µg/mL
MIC [10]: 16 µg/mL
MIC, combination of CAZ and compounds of the invention ([20]; MIC of ceftazidime with compound fixed at 4 μg/mL, strain UFR48 (P. aeruginosa)): 16 µg/mL
MIC [20, 24]: 8 µg/mL
MIC, combination of CAZ and compounds of the invention [11]: <0.25 µg/mL
MIC [11]: 1 µg/mL
MIC, combination of CAZ and compounds of the invention ([21]; MIC of ceftazidime with compound fixed at 4 μg/mL, strain UFR59 (P. aeruginosa)): 2 µg/mL
MIC [21, 24]: 16 µg/mL
pIC50 (SHV-1): 8.34
pIC50 (TEM-1): 8.52
pIC50 (AmpC (P99)): 8.13
